Measured values as given in PMC5587642, “A Novel Benzocoumarin-Stilbene Hybrid as a DNA ligase I inhibitor with in vitro and in vivo anti-tumor activity in breast cancer models” (Scientific Reports, 2017).

Legend:
[1] = test system: MDA-MB-231 cells; assay: Annexin V-FITC/PI apoptosis flow cytometry; format: cell-based, human
Description: Apoptotic cell death of MDA-MB-231 cells upon treatment with compound 19 was measured using a commercially available Annexin V-FITC apoptosis detection kit according to the manufacturer’s protocol (BD Biosciences, San Diego, CA). Briefly, cells were treated with different concentrations (0, 6 and 12 µM) of compound 19 for 24 and 48 h. The cells were then harvested, washed with cold PBS and stained with Annexin V-FITC and propidium iodide (PI) in binding buffer at room temperature in the dark. The stained cells were analyzed by fluorescence-activated cell sorting using a FACS-Calibur instrument (BD Biosciences, San Diego, CA) equipped with CellQuest 3.3 Software.

[2] = biological target: T1, hLigI (Homo sapiens, UniProt P18858); assay: In-vitro fluorescence quenching assay; format: binding; conditions: 5 and 10 µM, excitation 280 nm
T1 construct: made in house
T1 sequence (P18858 whole entry): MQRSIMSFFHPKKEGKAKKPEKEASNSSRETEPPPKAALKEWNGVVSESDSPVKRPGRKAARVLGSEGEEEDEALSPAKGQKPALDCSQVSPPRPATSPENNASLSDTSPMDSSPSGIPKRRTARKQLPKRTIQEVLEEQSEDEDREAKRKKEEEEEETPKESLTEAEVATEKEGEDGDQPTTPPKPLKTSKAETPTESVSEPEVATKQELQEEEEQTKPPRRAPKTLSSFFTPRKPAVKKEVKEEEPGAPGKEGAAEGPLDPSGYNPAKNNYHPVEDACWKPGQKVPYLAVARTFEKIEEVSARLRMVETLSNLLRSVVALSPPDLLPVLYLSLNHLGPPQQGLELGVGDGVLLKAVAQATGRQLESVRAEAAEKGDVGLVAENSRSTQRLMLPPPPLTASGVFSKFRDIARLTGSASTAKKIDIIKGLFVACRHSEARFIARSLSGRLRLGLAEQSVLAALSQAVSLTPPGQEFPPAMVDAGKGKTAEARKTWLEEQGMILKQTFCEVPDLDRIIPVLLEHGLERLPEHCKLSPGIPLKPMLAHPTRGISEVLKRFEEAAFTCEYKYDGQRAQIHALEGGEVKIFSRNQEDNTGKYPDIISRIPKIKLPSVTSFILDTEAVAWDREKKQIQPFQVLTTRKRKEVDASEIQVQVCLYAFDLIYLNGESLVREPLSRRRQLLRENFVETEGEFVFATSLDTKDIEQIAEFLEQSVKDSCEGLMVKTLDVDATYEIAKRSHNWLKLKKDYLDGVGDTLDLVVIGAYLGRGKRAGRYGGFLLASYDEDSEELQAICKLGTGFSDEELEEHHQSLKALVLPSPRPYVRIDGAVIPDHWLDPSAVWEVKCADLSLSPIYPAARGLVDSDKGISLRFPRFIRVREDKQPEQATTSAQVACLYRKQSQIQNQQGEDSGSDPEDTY
Description: In-vitro fluorescence quenching assay was performed as described previously[16] with brief modifications. At the fixed excitation wavelength 280 nm emission spectra of hLigI (100 pmol) was recorded from 300 to 400 nm in the presence (5 and 10 µM) or absence of compound 19 by spectrofluorometer. Compound 19 was used at 5 and 10 µM concentration with hLigI (100 pmol). Spectra was acquired for buffer alone (50 mM Tris-HCl, pH 7.5, 50 mM NaCl, 1 mM ATP, 10 mM MgCl2, 2 mM DTT and 5% glycerol), buffer with vehicle control, buffer with inhibitor alone and for buffer with protein and inhibitor.

[3] = Metabolic stability in rat liver microsomes; format: in vitro ADME
Description: Major drug clearance in the body occurs due to its metabolism in the liver. Metabolic stability in rat liver microsomes (RLM) was conducted in triplicate. Compound 19 (5 µM) was incubated in reaction milieu which contains RLM (0.5 mg/ml), MgCl2 (10 mM), NADPH (10 mM) in a 1.5 ml phosphate buffer solution (pH 7.4). Reaction was started by the addition of NADPH and kept in a shaking water bath at 37 °C. Organic content in reaction mixture was kept less than 1%. Time points at which samples were withdrawn were 0, 5, 15, 30, 45, 60 min. Testosterone was used as control to know the RLM enzyme activity. Control reaction without NADPH was performed to explore any chemical instability or non-cofactor dependent enzymatic degradation. At each time point 150 µL aliquots were withdrawn and added in 150 µL ACN, […] at 10,000 g for 5 minutes, 100 µL samples was pipetted out & analyzed in HPLC-PDA.

[4] = test system: plasmid DNA (pUC18); assay: DNaseI cleavage protection assay; format: binding; conditions: up to 500 µM
Description: We performed DNaseI cleavage assay as described in our previous study. Briefly, 100 ng of plasmid DNA (pUC18) was incubated with 100 µM concentration of doxorubicin (a known DNA intercalator), DAPI (DNA minor groove binder), methyl green (DNA major groove binder) and compound 19 (at 250 and 500 µM concentrations) for 30 min at 37 °C in an incubation buffer similar to ligation buffer. After incubation, the DNA was cleaved by adding 0.0025U of DNaseI in each reaction mixture for 5 min at 37 °C and the reactions were stopped by adding stop buffer which contained 7 M Urea, 20 mM Tris-Cl (pH. 7.5), 50 mM EDTA, 20% glycerol and Bromophenol blue. The samples were resolved on 1% agarose gel and visualized under UV transilluminator and image taken with GE Image quant LAS4010.

[5] = test system: MDA-MB-231 cells; assay: Western blotting of DNA damage and apoptosis markers; format: cell-based, human; conditions: 6 and 12 µM, 48 h
Description: Cells (MDA-MB-231) were seeded in 6 well plates and treated either with vehicle control (DMSO) or with different concentrations (6 and 12 µM) of compound 19 for 48 h. After the treatment cell lysate was prepared and western blotting was performed as described previously. Briefly, the cells were lysed by very brief sonication. Sonicated samples were centrifuged and the supernatant was collected and used for ligation assay and western blotting.

[6] = biological target: T2, FEN1 protein (Homo sapiens, UniProt P39748); assay: Flap cleavage assay; format: biochemical; conditions: compound 19 at 5, 10, 20 µM
T2 construct: His-tag (C); made in house; host or cells: E. coli BL21DE3
T2 sequence (P39748 whole entry): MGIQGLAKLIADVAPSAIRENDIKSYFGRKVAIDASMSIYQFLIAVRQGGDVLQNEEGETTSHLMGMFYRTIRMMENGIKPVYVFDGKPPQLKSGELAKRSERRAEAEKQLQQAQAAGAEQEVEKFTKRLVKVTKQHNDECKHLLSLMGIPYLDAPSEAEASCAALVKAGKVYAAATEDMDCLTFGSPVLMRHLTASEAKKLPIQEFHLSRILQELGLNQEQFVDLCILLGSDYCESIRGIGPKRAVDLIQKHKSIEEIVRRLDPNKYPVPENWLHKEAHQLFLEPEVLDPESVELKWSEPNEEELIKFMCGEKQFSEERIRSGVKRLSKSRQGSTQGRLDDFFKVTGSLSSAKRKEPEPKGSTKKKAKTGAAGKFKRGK
Description: Purification of FEN 1: Full length FEN1 DNA template was taken from pShuttle-FEN1hWT, a gift from Sheila Stewart (Addgene plasmid#35027) is subcloned into a pET41a expression vector containing C-terminal His-tag. pET41FEN1His freshly transformed into expression host BL21DE3 E. coli cells (Novagene), single colonies picked and inoculated in 5ml of LB media containing 50μg/ml of Kanamycin, grown for 3 to 4 hrs and further subcultured in 100 ml of LB medium containing 50μg/ml of Kanamycin and grown at 37°C till the OD reached to 0.6-0.7, induced at 0.5 mM IPTG at 16°C for 18hrs. Pellets were collected and lysed in 20 mM tris 150 mM NaCl (Lysis buffer) containing 1mM PMSF and 1mM benzamidine hydrochloride and purified by Ni-NTA affinity chromatography.
Flap cleavage assay: All oligos were purchased from Integrated DNA Technologies and dissolved in nuclase free water at concentration of 100μM. FAM-labeled 25+6 Flap-mer (5’-[…]-3’*6FAM)) was annealed with 52- mer (5’-[…]-3’) and 27-mer (5’-[…]-3’) to form a complementary double strand flap cleavage substrate. […] The cleaved and uncleaved DNA molecules are separated on 15% Urea gel and bands were detected by Image Quant LAS 4010 (GE Healthcare).

COc1cc(/C=C/c2cc(=O)oc3c2ccc2ccccc23)cc(OC)c1 [Compound 19, (E)-4-(3,5-dimethoxystyryl)-2H-benzo[h]chromen-2-one]
Apoptosis ([1]; 6 µM, 24 h): 10.78 ± 1.21% | Apoptosis ([1]; 6 µM, 48 h): 18.68 ± 4.86% | Apoptosis ([1]; 12 µM, 24 h): 16.37 ± 1.18% | Apoptosis ([1]; 12 µM, 48 h): 36.17 ± 3.43% | Change of hLigI fluorescence spectra (protein binding) [2]: fluorescence spectra of the full length hLigI protein changed | Microsomal metabolic stability ([3]; 5 µM, RLM 0.5 mg/ml, NADPH, up to 60 min): 55.5 ± 4.77% | Stability in control reaction in the absence of cofactor ([3]; RLM without NADPH): stable | Protection of DNA from cleavage by DNase I (DNA binding) [4]: no protection from cleavage by DNase I | Apoptotic signaling (p53, MDM2, PCNA, caspase 9, caspase 3, PARP-1) [5]: promotes p53 mediated intrinsic pathway of apoptosis | DNA damage marker γH2AX expression [5]: increased expression of γH2AX | Inhibition of FEN1 flap cleavage activity [6]: not able to inhibit
